Here are results for one compound from paper PMC10353187, “Discovery of a new potent oxindole multi-kinase inhibitor among a series of designed 3-alkenyl-oxindoles with ancillary carbonic anhydrase inhibitory activity as antiproliferative agents” (BMC Chemistry, 2023).

SMILES strings stand for the structures.

For one test, the system named is HL-60(TB). Description: NCI-60 single-dose antiproliferative assay (SRB). The test is classed as cell-based. As to conditions: Homo sapiens, 10 μM single dose, Leukemia, read-out: Cell Growth inhibition Percent.
The subject of another test is NCI/ADR-RES. Nature of the test: NCI-60 single-dose antiproliferative assay (SRB). The test is classed as cell-based. Conditions: Homo sapiens, 10 μM single dose, Ovarian Cancer, read-out: Cell Growth inhibition Percent. The essentials:
(§1)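 Cells grown in RPMI 1640 with 5% FBS and 2 mM L-glutamine were plated, left 24 h at 37 °C, then exposed to compound at a single 10 µM final concentration for 48 h. Adherent cells were TCA-fixed, SRB-stained and read at 515 nm; growth was expressed relative to time-zero and untreated controls.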

Another test relates to SK-MEL-28. Nature of the test: NCI-60 single-dose antiproliferative assay (SRB). The test is classed as cell-based. Conditions: Homo sapiens; 10 μM single dose; SK-MEL-28, Melanoma; read-out: Cell Growth inhibition Percent. The gist of the method:
as §1

The test system of the next test is UACC-257. Description: NCI-60 single-dose antiproliferative assay (SRB). The test is classed as cell-based. Conditions: Homo sapiens; 10 μM single dose; UACC-257, Melanoma; read-out: Cell Growth inhibition Percent. The essentials: as §1
For another test, the target named is T1, Kit (Homo sapiens, UniProt P10721).
T1 construct: purchased Thermo Fischer Scientific (SelectScreen service)
Description: Z'-LYTE kinase inhibition assay (SelectScreen). The test is classed as biochemical. The method, then:
To test the potential kinase inhibitory activity of compound 15c, initial single dose testing was performed at 10 μM on a panel of kinases and their inhibition % were determined.
The FGFR, VEGFR-2 and RET tyrosine kinase assays were carried out at Thermo Fischer Scientific, USA (www.thermofischer.com/selectscreen). (For further details see Additional file 1; S3: In vitro biological activity).
The FGFR, VEGFR-2 and RET tyrosine kinase assays were performed at Thermo Fischer Scientific, USA (www.thermofischer.com/selectscreen). The assay was performed to evaluate the inhibitory activity of the designed compound applying the Z'-LYTE biochemical assay employing a fluorescence-based, coupled-enzyme format based on the differential sensitivity of phosphorylate and non-phosphorylate peptides to the proteolytic cleavage. The peptide substrate is characterized with two fluorophores, one at each end, that make up a FRET pair ^9.
The Z´-LYTE biochemical assay employs a fluorescence-based, coupled-enzyme format and is based on the differential sensitivity of phosphorylated and non-phosphorylated peptides to proteolytic cleavage. The peptide substrate is labeled with two fluorophores—one at each end—that make up a FRET pair. In the primary reaction, the kinase transfers the gamma-phosphate of ATP to a single tyrosine, serine or threonine residue in a synthetic FRET-peptide. In the secondary reaction, a site-specific protease recognizes and cleaves non-phosphorylated FRET-peptides. Phosphorylation of FRET-peptides suppresses cleavage by the Development Reagent. Cleavage disrupts FRET between the donor (i.e., coumarin) and acceptor (i.e., fluorescein) fluorophores on the FRET-peptide, whereas uncleaved, phosphorylated FRET-peptides maintain FRET. A ratiometric method, which calculates the ratio (the Emission Ratio) of donor emission to acceptor emission after excitation of the donor fluorophore at 400 nm, is used to quantitate reaction progress, as shown in the equation below. A significant benefit of this ratiometric method for quantitating reaction progress is the elimination of wellto-well variations in FRET-peptide concentration and signal intensities. […]. Both cleaved and uncleaved FRET-peptides contribute to the fluorescence signals and therefore to the Emission Ratio. The extent of phosphorylation of the FRET-peptide can be calculated from the Emission Ratio. The Emission Ratio will remain low if the FRET-peptide is phosphorylated (i.e., no kinase inhibition) and will be high if the FRET-peptide is non-phosphorylated (i.e., kinase inhibition).
Test Compounds the Test Compounds are screened in 1% DMSO (final) in the well. For 10 point titrations, 3-fold serial dilutions are conducted from the starting concentration of the customer’s choosing. Peptide/Kinase Mixtures All Peptide/Kinase Mixtures are diluted to a 2X working concentration in the appropriate Kinase Buffer (see section Kinase Specific Assay Conditions for a complete description). ATP Solution All ATP Solutions are diluted to a 4X working concentration in Kinase Buffer (50 mM HEPES pH 7.5, 0.01% BRIJ-35, 10 mM MgCl2, 1 mM EGTA). ATP Km apparent is previously determined using a Z´-LYTE assay.

T1 sequence (P10721 26-976): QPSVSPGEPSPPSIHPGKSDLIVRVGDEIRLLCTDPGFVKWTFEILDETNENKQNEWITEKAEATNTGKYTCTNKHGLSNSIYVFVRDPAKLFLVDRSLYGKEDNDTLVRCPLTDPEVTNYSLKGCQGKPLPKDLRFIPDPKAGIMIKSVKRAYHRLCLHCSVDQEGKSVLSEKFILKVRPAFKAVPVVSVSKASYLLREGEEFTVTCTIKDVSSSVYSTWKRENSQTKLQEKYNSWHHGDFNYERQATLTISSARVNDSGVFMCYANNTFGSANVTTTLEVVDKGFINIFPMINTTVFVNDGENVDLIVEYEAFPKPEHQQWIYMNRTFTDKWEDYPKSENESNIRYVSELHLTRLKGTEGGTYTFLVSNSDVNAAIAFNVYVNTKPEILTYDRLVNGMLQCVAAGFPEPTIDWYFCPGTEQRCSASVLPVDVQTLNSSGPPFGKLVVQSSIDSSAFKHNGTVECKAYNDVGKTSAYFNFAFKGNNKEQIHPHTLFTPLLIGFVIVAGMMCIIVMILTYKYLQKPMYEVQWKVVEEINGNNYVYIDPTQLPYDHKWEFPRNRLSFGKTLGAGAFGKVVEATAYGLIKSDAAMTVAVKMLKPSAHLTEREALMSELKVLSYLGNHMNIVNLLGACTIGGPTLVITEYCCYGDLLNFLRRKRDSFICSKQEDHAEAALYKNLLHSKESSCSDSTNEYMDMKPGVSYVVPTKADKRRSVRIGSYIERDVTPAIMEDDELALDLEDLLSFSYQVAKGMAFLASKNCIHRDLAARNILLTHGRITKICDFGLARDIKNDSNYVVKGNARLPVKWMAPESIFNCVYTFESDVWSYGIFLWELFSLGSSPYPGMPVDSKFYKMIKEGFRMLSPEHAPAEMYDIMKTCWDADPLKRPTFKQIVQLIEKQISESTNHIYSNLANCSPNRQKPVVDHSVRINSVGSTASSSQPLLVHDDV

As usually defined, the inhibition is the change of the read-out against control, counted positive when it falls. Consider `O=C(Nc1ccc(NC=C2C(=O)Nc3ccccc32)cc1)Nc1nccs1` [Compound 15c, 1-{4-[((2-Oxoindolin-3-ylidene)methyl)amino]phenyl}-3-(thiazol-2-yl)urea], for which the inhibition at 10 µM is 58% in the test on HL-60(TB); 59.2% with NCI/ADR-RES; 38.7% in the test with SK-MEL-28; 28.4% with UACC-257; 31% against Kit.
